Data as given in publication PMC6285983, “Novel broad spectrum virucidal molecules against enveloped viruses” (PLoS ONE, 2018).

Tests used:
IAV H1N1 = IAV H1N1 inhibition assay on MDCK cells; conditions: Influenza A virus
Protocol: MDCK cells were pre-plated in 96-well plates. The following day, increasing concentrations of compounds were mixed with IAV (MOI 0.05) and incubated for 1 h at 37°C. The mixtures were subsequently added to the cells for 1 h at 37°C, after a washout cells were overlaid with medium for 16 h at 37°C. Cells were then fixed and subjected to specific immunostaining using a Flu A monoclonal antibody (Merck 5001) in order to visualize infected cells. Percentages of infection were calculated by comparing numbers of infected cells in treated and untreated wells.

HCMV = HCMV inhibition assay on HELF cells; type: cell-based, HCMV strain Towne; conditions: Human betaherpesvirus 5, HELF
Protocol: HELF cells were pre-plated in a 96-well plate. […] After five days incubation, cells were observed under an inverted Zeiss LSM510 fluorescence microscope (Zeiss, Oberkochen, Germany) and the percentages of infection were calculated by comparing GFP positive cells in treated and untreated wells.

[1] = Cell viability MTS assay, conditions of the HPV-16 and Ad5 assays; type: cell-based; conditions: human, HeLa cells; conditions of HPV-16 assay
Protocol: Cell viability was measured using the MTS [3- (4,5-dimethylthiazol-2-yl)-5- (3 carboxy methoxy phenyl)-2-(4-sulfophenyl)-2H-tetrazolium] assay. Cell cultures were seeded in 96-well plates and were incubated with different concentrations of compounds in duplicate under the same experimental conditions described for the antiviral assays, (i.e. if the incubation time of the compound on cells was carried for 2 hours and then the evaluation of the antiviral activity was done 72h later, the same timing was used for the cytotoxicity assays, in order to exclude any toxicity effect in the antiviral evaluation). Cell viability was determined using the CellTiter 96 Proliferation Assay Kit (Promega, Madison, WI, USA) according to the manufacturer's instructions. Absorbances were measured using a Microplate Reader (Model 680, BIORAD) at 490 nm. The effect on cell viability at different concentrations of the compound was expressed as a percentage, by comparing absorbances of treated cells with those of cells incubated with culture medium and equal volumes of vehicle. […]
(§1) HeLa cells were plated in 96-well plates. […] The GFP-expressing infected cells were observed under an inverted Zeiss LSM510 fluorescence microscope (Zeiss, Oberkochen, Germany) and the percentages of infection were calculated by comparing GFP positive cells in treated and untreated wells.

HSV-2 [2] = test: Binding assay (qPCR, immunostaining, IF); type: cell-based; conditions: 10 μM, HSV-2 MOI 10, 2 h on Vero cells at 4°C
Protocol: (§2) Since the observed irreversible effect can be exerted at different stages of viral infection, we investigated more in detail if compound 9d produced a physical disruption of the virus, thus preventing its attachment to the cells or a successive irreversible modification. We performed entry and binding assays, evaluating the amount of bound virus through immunostaining or qPCR. […] On the contrary, when entry assays were performed, it was possible to observe a reduction in the amount of virus associated to the cells (Fig 7D). […]
(§3) Cells were plated on coverslips and the following day the binding or entry protocol described above was applied. […] Rhodamine conjugated anti-rabbit (Santa Cruz) was then added on cells for 1 h at 37°C following 3 washes coverslips were mounted on microscope glasses and observed with Zeiss LSM510 fluorescence microscope (Zeiss, Oberkochen, Germany) and images were acquired.
Cells subjected to binding assays were then lysed and subjected to total DNA/RNA extraction and subsequently subjected to qPCR using as primers 5’- […] -3’ and 5’-[…] -3’ and as probe 5’-FAM […] -TAMRA for 40 cycles at 94°C for 15” followed by 60°C for 60”. The results were normalized according to values of rnasep and the % of bound virus were measured comparing the Δct of treated wells to wells treated with equal volume of solvent.

HRoV = HRoV inhibition assay on MA104 cells; type: cell-based, Human rotavirus strain Wa
Protocol: MA104 cell were plated in 96-well trays. The following day virus infectivity was activated by adding 5 μg porcine trypsin (Sigma)/mL for 30 min at 37°C. […] After 16 h, cells were fixed with cold acetone–methanol and viral titers were determined by indirect immunostaining using the monoclonal antibody mab-0036 (specific for human 41 kDa inner capsid protein–VP6 –of rotavirus) purchased from Covalab (Villeurbanne, France) and the UltraTech HRP Streptavidin-Biotin Detection System (Beckman Colter).

HSV-2 [3] = test: Time of addition: during infection, no preincubation; type: cell-based; conditions: Human alphaherpesvirus 2; during-infection assay, virus and compound added simultaneously
[4] = Cell viability MTS assay, conditions of the IAV assay; type: cell-based, Canine; conditions: dog, MDCK cells
Protocol: Cell viability was measured using the MTS [3- (4,5-dimethylthiazol-2-yl)-5- (3 carboxy methoxy phenyl)-2-(4-sulfophenyl)-2H-tetrazolium] assay. Cell cultures were seeded in 96-well plates and were incubated with different concentrations of compounds in duplicate under the same experimental conditions described for the antiviral assays, (i.e. if the incubation time of the compound on cells was carried for 2 hours and then the evaluation of the antiviral activity was done 72h later, the same timing was used for the cytotoxicity assays, in order to exclude any toxicity effect in the antiviral evaluation). Cell viability was determined using the CellTiter 96 Proliferation Assay Kit (Promega, Madison, WI, USA) according to the manufacturer's instructions. Absorbances were measured using a Microplate Reader (Model 680, BIORAD) at 490 nm. The effect on cell viability at different concentrations of the compound was expressed as a percentage, by comparing absorbances of treated cells with those of cells incubated with culture medium and equal volumes of vehicle. The 50% cytotoxic concentrations (CC50) and 95% confidence intervals (CIs) were determined using Prism software (Graph-Pad Software, San Diego, CA). For compound 9d a continuous incubation of 1, 2, 3 and 4 days on Vero cells was carried in order to evaluate the toxicity after long exposure the results are shown in S1 Fig and Fig 3.

RSV = RSV inhibition assay on Hep-2 cells; type: cell-based, RSV strain A2; conditions: human respiratory syncytial virus
Protocol: HeP-2 cells were pre-plated in a 96-well plate. […] 72 h later cells were fixed and subjected to specific immunostaining using an RSV monoclonal antibody (Ab35958; Abcam, Cambridge, United Kingdom) in order to visualize syncytia.

Ad5 = Ad5 inhibition assay on HeLa cells; type: cell-based, Adenovirus 5
Protocol: as §1

HSV-2 [5] = test: Entry assay; type: cell-based; conditions: 10 μM, HSV-2 MOI 10
Protocol: as §2, with “7D). With this assay, the signal from the virus could be related to virus in the cytoplasm or blocked in the endosomes, since the treatment with acidic glycine is affecting only the virus at the surface of the cell.” for “7D).”
as §3

[6] = system: HSV-2 acyclovir resistant strain; test: microbe, parasite or virus in culture; type: cell-based

Question: For `CC(C)c1ccc(CCN2C(=O)/C(=C/c3ccc(-c4ccc(C(=O)O)c(O)c4)o3)SC2=S)cc1` [Compound 9d, (Z)-2-hydroxy-4-(5-((3-(4-isopropylphenethyl)-4-oxo-2-thioxothiazolidin-5-ylidene)methyl)furan-2-yl)benzoic acid], which EC50 (IAV H1N1; read-out: EC50 (95% C.I.)) is on record?
Answer: Its EC50 is 66.1 nM.

Question: And the EC90 (IAV H1N1; read-out: EC90 (95% C.I.))?
Answer: The EC90 was 301 nM.

Question: What about the EC50 (HCMV; read-out: EC50 (95% C.I.)) of the same compound?
Answer: Its EC50 is 4.22 nM.

Question: What about the EC90 (HCMV; read-out: EC90 (95% C.I.)) of the same compound?
Answer: Its EC90 is 31.3 nM.

Question: What about the CC50 at 72 h [1] of the same compound?
Answer: Its CC50 at 72 h is 94200 nM.

Question: And the viral binding capability (HSV-2 [2])?
Answer: The viral binding capability was “not altering viral binding capability”.

Question: What about the “antiviral activity against non-enveloped virus” value (HRoV) of the same compound?
Answer: The value was “inactive”.

Question: What about the EC50 (HSV-2 [3]) of the same compound?
Answer: The EC50 was 147 nM.

Question: What about the CC50 at 1 h [4] of the same compound?
Answer: Its CC50 at 1 h is 136000 nM.

Question: And the EC50 (RSV; read-out: EC50 (95% C.I.))?
Answer: Its EC50 is 54.8 nM.

Question: And the EC90 (RSV; read-out: EC90 (95% C.I.))?
Answer: Its EC90 is 221 nM.

Question: And the “antiviral activity against non-enveloped virus” value (Ad5)?
Answer: The value was “inactive”.

Question: And the “amount of virus associated to the cells” value (HSV-2 [5])?
Answer: Its value is “reduction”.

Question: What about the EC50 ([6]; Human alphaherpesvirus 2, read-out: EC50 (95% C.I.)) of the same compound?
Answer: Its EC50 is 1.6 nM.

Question: What about the EC90 ([6]; Human alphaherpesvirus 2, read-out: EC90 (95% C.I.)) of the same compound?
Answer: The EC90 was 24.3 nM.
